From patent publication US8178690B2, “Compounds and methods for inhibiting the interaction of BCL proteins with binding partners” (Infinity Pharmaceuticals, Inc., priority 2006, dated 2012)

Tests used:
Bcl-2 = Bcl-2 (Homo sapiens, UniProt P10415); experiment: Bcl-2 binding affinity analysis (fluorescence polarization binding assay); settings: read-out: BcI2 (Ki, Bcl-2 binding affinity)
Text: (§1) Bcl-2 and Bcl-xL binding may be determined using a variety of known methods. One such assay is a sensitive and quantitative in vitro binding assay using fluorescence polarization (FP) described by Wang, J.-L.; Zhang, Z-J.; Choksi, S.; Sjam. S.; Lu, Z.; Croce, C. M.; Alnemri, E. S.; Komgold, R.; Huang, Z. Cell permeable Bcl-2 binding peptides: a chemical approach to apoptosis induction in tumor cells. Cancer Res. 2000, 60, 1498-1502).
(§2) Bcl-2 and Bcl-xL binding affinity analysis data is presented below for various compounds of the invention.

Bcl-xL = Bcl-xL (Homo sapiens, UniProt Q07817); experiment: Bcl-xL binding affinity analysis (fluorescence polarization binding assay); settings: read-out: BcI-XI (Ki, Bcl-xL binding affinity)
Text: as §1, §2

Chain of Bcl-2 (P10415 whole entry): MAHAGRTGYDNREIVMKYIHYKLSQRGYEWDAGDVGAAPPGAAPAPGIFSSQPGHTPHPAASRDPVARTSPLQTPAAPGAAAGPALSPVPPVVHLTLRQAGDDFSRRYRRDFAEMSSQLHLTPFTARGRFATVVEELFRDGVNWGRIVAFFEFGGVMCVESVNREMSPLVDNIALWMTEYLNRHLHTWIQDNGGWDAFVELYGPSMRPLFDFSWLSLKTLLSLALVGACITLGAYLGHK
Chain of Bcl-xL (Q07817 whole entry): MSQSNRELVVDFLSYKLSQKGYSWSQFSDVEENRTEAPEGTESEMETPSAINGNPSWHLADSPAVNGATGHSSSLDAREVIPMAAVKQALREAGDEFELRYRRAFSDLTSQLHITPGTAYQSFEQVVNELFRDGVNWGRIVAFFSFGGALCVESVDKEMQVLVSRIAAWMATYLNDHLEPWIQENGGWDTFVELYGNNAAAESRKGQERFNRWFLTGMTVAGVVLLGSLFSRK

Compound | Ki (Bcl-2) | Ki (Bcl-xL)
COc1c(CN2O[C@@H](CO)[C@@H]([C@H](C)O)[C@H]2C(=O)N[C@H]2C[C@H]3C[C@@H]([C@@H]2C)C3(C)C)cccc1-c1cc(CN)cc(C(=O)N[C@@H](Cc2ccccc2)CN(C)C)c1 [295 amine] | < 0.001 µM | < 1 µM
COc1c(CN2O[C@@H](CO)[C@@H]([C@H](C)O)[C@H]2C(=O)N[C@H]2C[C@H]3C[C@@H]([C@@H]2C)C3(C)C)cccc1-c1cc(C(=O)N[C@H](CN(C)C)CC(C)(C)C)cc(N(C)C)c1 [Compound 1] | < 0.001 µM | < 1 µM
COC[C@@H](Cc1ccccc1)NC(=O)c1cc(-c2cccc(CN3O[C@@H](CO)[C@@H]([C@H](C)O)[C@H]3C(=O)N[C@H]3C[C@H]4C[C@@H]([C@@H]3C)C4(C)C)c2OC)cc(N(C)C)c1 [Compound 12] | 0.005 to 0.009 µM | 5 to 10 µM
CCOc1c(CN2O[C@@H](CO)[C@@H]([C@H](C)O)[C@H]2C(=O)N[C@H]2C[C@H]3C[C@@H]([C@@H]2C)C3(C)C)cccc1-c1cc(C(=O)N[C@@H](Cc2ccccc2)CN(C)C)cc(N(C)C)c1 [Compound 15] | < 0.001 µM | < 1 µM
CCOc1c(CN2O[C@@H](CO)[C@@H]([C@H](C)O)[C@H]2C(=O)N[C@H]2C[C@H]3C[C@@H]([C@@H]2C)C3(C)C)cccc1-c1cc(C(=O)N[C@H](Cc2ccccc2)CN(C)C)cc(N(C)C)c1 [Compound 23] | < 0.001 µM | < 1 µM
CCOc1c(CN2O[C@@H](CO)[C@@H]([C@H](C)O)[C@H]2C(=O)N[C@H]2C[C@H]3C[C@@H]([C@@H]2C)C3(C)C)cccc1-c1cc(C(=O)N[C@H](CN(C)C)CC(C)(C)C)cc(N(C)C)c1 [Compound 24] | < 0.001 µM | < 1 µM
CCOc1c(CN2O[C@@H](CO)[C@@H]([C@H](C)O)[C@H]2C(=O)N[C@H]2C[C@H]3C[C@@H]([C@@H]2C)C3(C)C)cccc1-c1cc(C(=O)N[C@@H](Cc2cccs2)CN(C)C)cc(N(C)C)c1 [Compound 25] | < 0.001 µM | < 1 µM
C[C@@H]1[C@@H](NC(=O)[C@@H]2[C@H]([C@H](C)O)[C@H](CO)ON2Cc2cccc(-c3cc(C(=O)N[C@@H](Cc4ccccc4)CN(C)C)cc(N(C)C)c3)c2OCC2CC2)C[C@H]2C[C@@H]1C2(C)C [Compound 26] | < 0.001 µM | < 1 µM
C[C@@H]1[C@@H](NC(=O)[C@@H]2[C@H]([C@H](C)O)[C@H](CO)ON2Cc2cccc(-c3cc(C(=O)N[C@H](CN(C)C)CC(C)(C)C)cc(N(C)C)c3)c2OCC2CC2)C[C@H]2C[C@@H]1C2(C)C [Compound 33] | < 0.001 µM | < 1 µM
CC(C)C[C@H](CN(C)C)NC(=O)c1cc(-c2cccc(CN3O[C@@H](CO)[C@@H]([C@H](C)O)[C@H]3C(=O)N[C@H]3C[C@H]4C[C@@H]([C@@H]3C)C4(C)C)c2OCC2CC2)cc(N(C)C)c1 [Compound 34] | < 0.001 µM | < 1 µM
CCOc1c(CN2O[C@@H](CO)[C@@H]([C@H](C)O)[C@H]2C(=O)N[C@H]2C[C@H]3C[C@@H]([C@@H]2C)C3(C)C)cccc1-c1cc(C(=O)N[C@@H](CC(C)C)CN(C)C)cc(N(C)C)c1 [Compound 35] | < 0.001 µM | < 1 µM
COc1c(CN2O[C@@H](CO)[C@@H]([C@H](C)O)[C@H]2C(=O)N[C@H]2C[C@H]3C[C@@H]([C@@H]2C)C3(C)C)cccc1-c1cc(C(=O)N[C@@H](Cc2ccccc2)CN(C)C)cc(N(C)C)c1 [Compound 37] | < 0.001 µM | < 1 µM
C[C@@H]1[C@@H](NC(=O)[C@@H]2[C@H]([C@H](C)O)[C@H](CN)ON2Cc2cccc(-c3cc(C(=O)N[C@@H](Cc4ccccc4)CN(C)C)cc(N(C)C)c3)c2F)C[C@H]2C[C@@H]1C2(C)C [Compound 38] | < 0.001 µM | > 10 µM
C[C@@H]1[C@@H](NC(=O)[C@@H]2[C@H]([C@H](C)O)[C@H](CN)ON2Cc2cccc(-c3cc(C(=O)NCCN(C)C)cc(N(C)C)c3)c2F)C[C@H]2C[C@@H]1C2(C)C [Compound 53] | 0.001 to 0.005 µM | > 10 µM
COc1c(CN2O[C@@H](CN)[C@@H]([C@H](C)O)[C@H]2C(=O)N[C@H]2C[C@H]3C[C@@H]([C@@H]2C)C3(C)C)cccc1-c1cc(C(=O)N[C@@H](Cc2ccccc2)CN(C)C)cc(N(C)C)c1 [Compound 54] | 0.001 to 0.005 µM | > 10 µM
CCN1CCC[C@@H]1CNC(=O)c1cc(-c2cccc(CN3O[C@@H](CN)[C@@H]([C@H](C)O)[C@H]3C(=O)N[C@H]3C[C@H]4C[C@@H]([C@@H]3C)C4(C)C)c2OC)cc(N(C)C)c1 [Compound 60] | < 0.001 µM | 1 to 5 µM
COc1c(CN2O[C@@H](CN)[C@@H]([C@H](C)O)[C@H]2C(=O)N[C@H]2C[C@H]3C[C@@H]([C@@H]2C)C3(C)C)cccc1-c1cc(C(=O)N[C@H](CN(C)C)CC(C)(C)C)cc(N(C)C)c1 [Compound 61] | < 0.001 µM | < 1 µM
COc1c(CN2O[C@@H](CN)[C@@H]([C@H](C)O)[C@H]2C(=O)N[C@H]2C[C@H]3C[C@@H]([C@@H]2C)C3(C)C)cccc1-c1cc(C(=O)NCCc2ccccc2)cc(N(C)C)c1 [Compound 62] | < 0.001 µM | 5 to 10 µM
COc1c(CN2O[C@@H](CN)[C@@H]([C@H](C)O)[C@H]2C(=O)N[C@H]2C[C@H]3C[C@@H]([C@@H]2C)C3(C)C)cccc1-c1cc(C(=O)NCCN(C)C)cc(N(C)C)c1 [Compound 63] | < 0.001 µM | 5 to 10 µM
COc1c(CN2O[C@@H](CN)[C@@H]([C@H](C)O)[C@H]2C(=O)N[C@H]2C[C@H]3C[C@@H]([C@@H]2C)C3(C)C)cccc1-c1cc(C(=O)NCCc2ccccn2)cc(N(C)C)c1 [Compound 64] | < 0.001 µM | > 10 µM
COC(=O)[C@H](Cc1ccccc1)NC(=O)c1cc(-c2cccc(CN3O[C@@H](CN)[C@@H]([C@H](C)O)[C@H]3C(=O)N[C@H]3C[C@H]4C[C@@H]([C@@H]3C)C4(C)C)c2OC)cc(N(C)C)c1 [Compound 65] | < 0.001 µM | > 10 µM
COc1c(CN2O[C@@H](CN)[C@@H]([C@H](C)O)[C@H]2C(=O)N[C@H]2C[C@H]3C[C@@H]([C@@H]2C)C3(C)C)cccc1-c1cc(C(=O)N(C)OC)cc(N(C)C)c1 [Compound 66] | < 0.001 µM | 5 to 10 µM
COc1c(CN2O[C@@H](CN)[C@@H]([C@H](C)O)[C@H]2C(=O)N[C@H]2C[C@H]3C[C@@H]([C@@H]2C)C3(C)C)cccc1-c1cc(C(=O)N[C@@H](Cc2cscn2)C(=O)N(C)C)cc(N(C)C)c1 [Compound 67] | < 0.001 µM | 5 to 10 µM
COc1c(CN2O[C@@H](CN)[C@@H]([C@H](C)O)[C@H]2C(=O)N[C@H]2C[C@H]3C[C@@H]([C@@H]2C)C3(C)C)cccc1-c1cc(C(=O)N[C@H](CC(C)C)CN(C)C)cc(N(C)C)c1 [Compound 68] | < 0.001 µM | < 1 µM
COc1c(CN2O[C@@H](CN)[C@@H]([C@H](C)O)[C@H]2C(=O)N[C@H]2C[C@H]3C[C@@H]([C@@H]2C)C3(C)C)cccc1-c1cc(C(=O)N(C)C)cc(N(C)C)c1 [Compound 69] | 0.005 to 0.009 µM | > 10 µM
CNC(=O)c1cc(-c2cccc(CN3O[C@@H](CN)[C@@H]([C@H](C)O)[C@H]3C(=O)N[C@H]3C[C@H]4C[C@@H]([C@@H]3C)C4(C)C)c2OC)cc(N(C)C)c1 [Compound 70] | 0.001 to 0.005 µM | > 10 µM
COc1c(CN2O[C@@H](CN)[C@@H]([C@H](C)O)[C@H]2C(=O)N[C@H]2C[C@H]3C[C@@H]([C@@H]2C)C3(C)C)cccc1-c1cc(C(=O)O)cc(N(C)C)c1 [Compound 71] | > 0.009 µM | 1 to 5 µM
